Measured values published in patent publication US20160046618A1, “Cyclopropyl Fused Thiazin-2-Amine Compounds as Beta-Secretase Inhibitors and Methods of Use” (AMGEN INC., priority 2014, published 2016).
Where two headings read alike, the source gives them in different places. Each block holds one molecule with its values, some of them ahead of it.

How the values were obtained:
[1] = system: Aβ40 in conditioned medium of cells stably expressing Amyloid Precursor Protein (APP); assay: In vitro BACE-1 cell-based assay (Aβ40 sandwich ELISA); conditions: read-out: IC50 IP (μM) BACE1 cell
Procedure, shortened: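 Aβ40 in supernatants measured by time-resolved fluorescence sandwich ELISA, with pAb40 as capture and biotin-6E10 as detector antibody, each incubated at 4 °C.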

human recombinant BACE1 = human recombinant BACE1 (Homo sapiens (Human), UniProt P56817); assay: In vitro enzymatic BACE1 FRET assay; format: biochemical; conditions: read-out: IC50 IP (μM) BACE1 enzyme
Procedure, shortened: (§1)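 Fluorescence from cleavage of a quenched peptide spanning the BACE site (50 nM) was read at 488 nm excitation, 590 nm emission. Purified enzyme (Ni-NTA) and compound reacted for one hour before a Tris stop shifted pH to neutral.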

Aβ 40 in rat brain = assay: In vivo inhibition of beta-secretase: Aβ40 reduction in rat brain; conditions: 10 mpk, after 4 h
Procedure, shortened: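 Rats were dosed by oral gavage at up to 100 mg/kg in 2% HPMC, 1% Tween80, pH 2.2, with vehicle-only controls. Supernatant Aβ40 was measured by ECL sandwich ELISA with biotinylated-4G8 capture and C-terminal Fab40 detection.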

human recombinant BACE2 = human recombinant BACE2 (Homo sapiens (Human), UniProt Q9Y5Z0); assay: In vitro enzymatic BACE2 FRET assay; format: biochemical; conditions: read-out: IC50 IP (μM) BACE2 enzyme
Procedure, shortened: as §1

Aβ 40 in rat CSF = assay: In vivo inhibition of beta-secretase: Aβ40 reduction in rat CSF; conditions: 10 mpk, after 4 h
Procedure, shortened: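 Male Sprague Dawley rats (200 g) dosed orally in 2% HPMC, 1% Tween80, pH 2.2, at 3, 10 or 30 mg/kg; CSF and brain taken 4 h later. Brain homogenate centrifuged at 355,000 g; Aβ40 measured by ECL sandwich ELISA (4G8 capture, Abeta40 C-terminal Fab detection), as % reduction versus vehicle controls.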

Recombinant Cat D = Recombinant Cat D (Homo sapiens (Human), UniProt P07339); assay: In vitro enzymatic Cathepsin D (Cat D) FRET assay; format: biochemical; conditions: read-out: IC50 IP (μM) CatD
Procedure, shortened: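 Assay pH is 3.5 (0.05 M citrate, 5 mM CHAPS, 10% DMSO final) with Cat D from CHO cells. A 20 nM quenched peptide substrate is cleaved over one hour; the reaction is ended with Tris and read by fluorescence (ex 500, em 580 nm).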

Sequence of human recombinant BACE1 (P56817 46-501): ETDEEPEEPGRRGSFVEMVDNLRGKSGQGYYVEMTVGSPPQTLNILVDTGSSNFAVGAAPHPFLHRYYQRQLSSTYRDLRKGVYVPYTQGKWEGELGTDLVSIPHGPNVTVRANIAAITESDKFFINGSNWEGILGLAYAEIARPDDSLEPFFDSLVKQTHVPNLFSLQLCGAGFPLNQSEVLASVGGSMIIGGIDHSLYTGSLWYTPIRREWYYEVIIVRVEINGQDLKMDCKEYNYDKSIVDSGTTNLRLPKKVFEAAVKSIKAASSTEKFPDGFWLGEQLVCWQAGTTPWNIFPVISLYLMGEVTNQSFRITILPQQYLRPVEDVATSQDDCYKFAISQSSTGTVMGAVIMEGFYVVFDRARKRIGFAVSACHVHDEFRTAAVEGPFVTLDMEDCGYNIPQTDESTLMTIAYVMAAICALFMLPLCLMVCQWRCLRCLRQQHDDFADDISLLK
Sequence of human recombinant BACE2 (Q9Y5Z0 63-518): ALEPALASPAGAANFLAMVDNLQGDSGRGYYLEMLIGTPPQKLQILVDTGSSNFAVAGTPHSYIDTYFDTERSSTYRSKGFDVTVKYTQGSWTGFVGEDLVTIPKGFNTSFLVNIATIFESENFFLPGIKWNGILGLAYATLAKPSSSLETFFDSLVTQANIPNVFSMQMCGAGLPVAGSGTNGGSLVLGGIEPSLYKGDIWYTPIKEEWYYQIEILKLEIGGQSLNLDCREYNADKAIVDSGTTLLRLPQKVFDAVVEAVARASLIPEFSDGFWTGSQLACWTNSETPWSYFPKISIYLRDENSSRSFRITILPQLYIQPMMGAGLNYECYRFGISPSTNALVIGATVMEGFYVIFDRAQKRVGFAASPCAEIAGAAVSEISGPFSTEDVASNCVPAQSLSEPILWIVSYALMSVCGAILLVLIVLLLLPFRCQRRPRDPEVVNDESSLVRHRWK
Sequence of Recombinant Cat D (P07339 65-412): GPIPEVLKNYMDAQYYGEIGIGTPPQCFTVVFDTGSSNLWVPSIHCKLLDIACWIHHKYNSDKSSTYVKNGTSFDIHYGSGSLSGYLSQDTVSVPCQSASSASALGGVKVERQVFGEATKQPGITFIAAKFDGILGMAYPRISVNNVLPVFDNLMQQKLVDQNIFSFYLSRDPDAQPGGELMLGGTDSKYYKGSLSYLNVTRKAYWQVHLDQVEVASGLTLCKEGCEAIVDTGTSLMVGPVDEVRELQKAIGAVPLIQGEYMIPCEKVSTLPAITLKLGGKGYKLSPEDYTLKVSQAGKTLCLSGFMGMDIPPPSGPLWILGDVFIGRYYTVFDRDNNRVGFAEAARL

SMILES: C#CCOc1cnc(C(=O)Nc2cc(F)c(F)c([C@@]3(CF)N=C(N)S[C@H]4C[C@H]43)c2)c(C)n1 [Example 84, N-(3-((1S,5S,6S)-3-amino-5-(fluoromethyl)-2-thia-4-azabicyclo[4.1.0]hept-3-en-5-yl)-4,5-difluorophenyl)-3-methyl-5-(2-propyn-1-yloxy)-2-pyrazinecarboxamide]
IC50 ([1]; BACE1 cell-based assay): 0.0216 µM
IC50 (human recombinant BACE1; BACE1 FRET enzyme assay): 0.00125 µM
% Aβ 40 reduction in rat brain at 10 mpk (Aβ 40 in rat brain): 8%
IC50 (human recombinant BACE2; BACE2 FRET enzyme assay): 0.0228 µM
% Aβ 40 reduction in rat CSF at 10 mpk (Aβ 40 in rat CSF): 40%
IC50 (Recombinant Cat D; Cathepsin D FRET enzyme assay): 974 µM

SMILES: C[C@]1(c2cc(Nc3ncnc4cc(C#N)cnc34)cc(F)c2F)N=C(N)S[C@@]2(C(F)F)C[C@@H]12 [Example 95, 4-((3-((1S,5S,6S)-3-amino-1-(difluoromethyl)-5-methyl-2-thia-4-azabicyclo[4.1.0]hept-3-en-5-yl)-4,5-difluorophenyl)amino)pyrido[3,2-d]pyrimidine-7-carbonitrile]
IC50 ([1]; BACE1 cell-based assay): 0.0138 µM
IC50 (human recombinant BACE1; BACE1 FRET enzyme assay): 0.00426 µM
% Aβ 40 reduction in rat brain at 10 mpk (Aβ 40 in rat brain): 60%
IC50 (human recombinant BACE2; BACE2 FRET enzyme assay): 0.00837 µM
% Aβ 40 reduction in rat CSF at 10 mpk (Aβ 40 in rat CSF): 69%
IC50 (Recombinant Cat D; Cathepsin D FRET enzyme assay): 133 µM

SMILES: Cc1cc(OCC(F)(F)F)cnc1C(=O)Nc1cc(F)c(F)c([C@@]2(C)N=C(N)S[C@@]3(CF)C[C@H]32)c1 [Example 678, N-(3-((1S,5S,6S)-3-amino-1-(fluoromethyl)-5-methyl-2-thia-4-azabicyclo[4.1.0]hept-3-en-5-yl)-4,5-difluorophenyl)-3-methyl-5-(2,2,2-trifluoroethoxy)-2-pyridinecarboxamide]
IC50 [1]: 0.0286 µM
IC50 (human recombinant BACE1): 0.00612 µM
% Aβ 40 reduction in rat brain at 10 mpk (Aβ 40 in rat brain): 11%
IC50 (human recombinant BACE2): 0.579 µM
% Aβ 40 reduction in rat CSF at 10 mpk (Aβ 40 in rat CSF): 40%
IC50 (Recombinant Cat D): 747 µM

SMILES: Cc1cc(OCC(F)(F)F)cnc1C(=O)Nc1cc(F)c(F)c([C@@]2(C)N=C(N)S[C@@]3(C(F)F)C[C@@H]23)c1 [Example 679, N-(3-((1S,5S,6S)-3-amino-1-(difluoromethyl)-5-methyl-2-thia-4-azabicyclo[4.1.0]hept-3-en-5-yl)-4,5-difluorophenyl)-3-methyl-5-(2,2,2-trifluoroethoxy)-2-pyridinecarboxamide]
IC50 [1]: 0.0495 µM
IC50 (human recombinant BACE1): 0.00435 µM
% Aβ 40 reduction in rat brain at 10 mpk (Aβ 40 in rat brain): 6%
IC50 (human recombinant BACE2): 0.746 µM
% Aβ 40 reduction in rat CSF at 10 mpk (Aβ 40 in rat CSF): 20%
IC50 (Recombinant Cat D): 375 µM

SMILES: Cc1cc(OCC(F)(F)F)cnc1C(=O)Nc1ccc(F)c([C@@]2(C)N=C(N)S[C@@]3(CF)C[C@H]32)c1 [Example 689, N-(3-((1S,5S,6S)-3-amino-1-(fluoromethyl)-5-methyl-2-thia-4-azabicyclo[4.1.0]hept-3-en-5-yl)-4-fluorophenyl)-3-methyl-5-(2,2,2-trifluoroethoxy)-2-pyridinecarboxamide]
IC50 [1]: 0.0464 µM
IC50 (human recombinant BACE1): 0.0105 µM
% Aβ 40 reduction in rat brain at 10 mpk (Aβ 40 in rat brain): 10%
IC50 (human recombinant BACE2): 0.819 µM
% Aβ 40 reduction in rat CSF at 10 mpk (Aβ 40 in rat CSF): 38%
IC50 (Recombinant Cat D): > 400 µM

SMILES: C[C@]1(c2cc(NC(=O)c3ccc(OCC(F)(F)F)cn3)ccc2F)N=C(N)S[C@@]2(CF)C[C@H]21 [Example 697, N-(3-((1S,5S,6S)-3-amino-1-(fluoromethyl)-5-methyl-2-thia-4-azabicyclo[4.1.0]hept-3-en-5-yl)-4-fluorophenyl)-5-(2,2,2-trifluoroethoxy)-2-pyridinecarboxamide]
IC50 [1]: 0.0315 µM
IC50 (human recombinant BACE1): 0.00629 µM
% Aβ 40 reduction in rat brain at 10 mpk (Aβ 40 in rat brain): 13%
IC50 (human recombinant BACE2): 0.338 µM
% Aβ 40 reduction in rat CSF at 10 mpk (Aβ 40 in rat CSF): 35%
IC50 (Recombinant Cat D): > 400 µM

Continued by falling IC50 [1], values first:

IC50 [1]: 0.0246 µM
IC50 (human recombinant BACE1): 0.00337 µM
IC50 (human recombinant BACE2): 0.143 µM
IC50 (Recombinant Cat D): 477 µM
SMILES: Cc1cc(OCc2ncco2)cnc1C(=O)Nc1cc(F)c(F)c([C@@]2(C)N=C(N)S[C@@]3(CF)C[C@H]32)c1 [Example 645, N-(3-((1S,5S,6S)-3-amino-1-(fluoromethyl)-5-methyl-2-thia-4-azabicyclo[4.1.0]hept-3-en-5-yl)-4,5-difluorophenyl)-3-methyl-5-(1,3-oxazol-2-ylmethoxy)-2-pyridinecarboxamide]
% Aβ 40 reduction in rat brain at 10 mpk (Aβ 40 in rat brain): 34%
% Aβ 40 reduction in rat CSF at 10 mpk (Aβ 40 in rat CSF): 53%

IC50 [1]: 0.0153 µM
IC50 (human recombinant BACE1): 0.0139 µM
IC50 (human recombinant BACE2): 0.846 µM
IC50 (Recombinant Cat D): 1110 µM
SMILES: Cc1cc(OCC(F)(F)F)cnc1C(=O)Nc1ccc(F)c([C@@]2(C)N=C(N)S[C@@]3(C(F)F)C[C@@H]23)c1 [Example 680, N-(3-((1S,5S,6S)-3-amino-1-(difluoromethyl)-5-methyl-2-thia-4-azabicyclo[4.1.0]hept-3-en-5-yl)-4-fluorophenyl)-3-methyl-5-(2,2,2-trifluoroethoxy)-2-pyridinecarboxamide]
% Aβ 40 reduction in rat brain at 10 mpk (Aβ 40 in rat brain): 8%
% Aβ 40 reduction in rat CSF at 10 mpk (Aβ 40 in rat CSF): 30%

IC50 [1]: 0.0148 µM
IC50 (human recombinant BACE1): 0.00324 µM
IC50 (human recombinant BACE2): 0.0383 µM
IC50 (Recombinant Cat D): 443 µM
SMILES: COC[C@]12C[C@H]1[C@@](C)(c1cc(Nc3nccc4nc(OCc5cocn5)cnc34)cc(F)c1F)N=C(N)S2 [Example 628, N-(3-((1S,5S,6S)-3-amino-1-(methoxymethyl)-5-methyl-2-thia-4-azabicyclo[4.1.0]hept-3-en-5-yl)-4,5-difluorophenyl)-2-(1,3-oxazol-4-ylmethoxy)pyrido[3,4-b]pyrazin-5-amine]
% Aβ 40 reduction in rat brain at 10 mpk (Aβ 40 in rat brain): 50%
% Aβ 40 reduction in rat CSF at 10 mpk (Aβ 40 in rat CSF): 59%

IC50 [1]: 0.00428 µM
IC50 (human recombinant BACE1): 0.00114 µM
IC50 (human recombinant BACE2): 0.0384 µM
IC50 (Recombinant Cat D): 1390 µM
SMILES: C#CCOc1cnc2c(Nc3cc(F)c(F)c([C@@]4(C)N=C(N)S[C@@]5(COC)C[C@H]54)c3)nccc2n1 [Example 627, N-(3-((1S,5S,6S)-3-amino-1-(methoxymethyl)-5-methyl-2-thia-4-azabicyclo[4.1.0]hept-3-en-5-yl)-4,5-difluorophenyl)-2-(2-propyn-1-yloxy)pyrido[3,4-b]pyrazin-5-amine]
% Aβ 40 reduction in rat brain at 10 mpk (Aβ 40 in rat brain): 50%
% Aβ 40 reduction in rat CSF at 10 mpk (Aβ 40 in rat CSF): 59%

IC50 [1]: 0.00345 µM
IC50 (human recombinant BACE1): 0.00133 µM
IC50 (human recombinant BACE2): 0.0235 µM
IC50 (Recombinant Cat D): 554 µM
SMILES: C#CCOc1cnc2c(Nc3cnc(F)c([C@@]4(C)N=C(N)S[C@@]5([C@@H](O)C(F)(F)F)C[C@H]54)c3)nccc2n1 [Example 660, (1S)-1-((1S,5S,6S)-3-amino-5-(2-fluoro-5-((2-(2-propyn-1-yloxy)pyrido[3,4-b]pyrazin-5-yl)amino)-3-pyridinyl)-5-methyl-2-thia-4-azabicyclo[4.1.0]hept-3-en-1-yl)-2,2,2-trifluoroethanol]
% Aβ 40 reduction in rat brain at 10 mpk (Aβ 40 in rat brain): 26%
% Aβ 40 reduction in rat CSF at 10 mpk (Aβ 40 in rat CSF): 38%

IC50 [1]: 0.00325 µM
IC50 (human recombinant BACE1): 0.00173 µM
IC50 (human recombinant BACE2): 0.055 µM
IC50 (Recombinant Cat D): 475 µM
SMILES: COC[C@]12C[C@H]1[C@@](C)(c1cc(Nc3nccc4nc(OCc5ncco5)cnc34)cc(F)c1F)N=C(N)S2 [Example 631, N-(3-((1S,5S,6S)-3-amino-1-(methoxymethyl)-5-methyl-2-thia-4-azabicyclo[4.1.0]hept-3-en-5-yl)-4,5-difluorophenyl)-2-(1,3-oxazol-2-ylmethoxy)pyrido[3,4-b]pyrazin-5-amine]
% Aβ 40 reduction in rat brain at 10 mpk (Aβ 40 in rat brain): 47%
% Aβ 40 reduction in rat CSF at 10 mpk (Aβ 40 in rat CSF): 52%

IC50 [1]: 0.00103 µM
IC50 (human recombinant BACE1): 0.00115 µM
IC50 (human recombinant BACE2): 0.0544 µM
IC50 (Recombinant Cat D): 196 µM
SMILES: C#CCOc1cnc(C(=O)Nc2cnc(OC)c([C@@]3(C)N=C(N)S[C@@]4(CF)C[C@H]43)c2)cn1 [Example 612, N-(5-((1S,5S,6S)-3-amino-1-(fluoromethyl)-5-methyl-2-thia-4-azabicyclo[4.1.0]hept-3-en-5-yl)-6-methoxy-3-pyridinyl)-5-(2-propyn-1-yloxy)-2-pyrazinecarboxamide]
% Aβ 40 reduction in rat brain at 10 mpk (Aβ 40 in rat brain): 82%
% Aβ 40 reduction in rat CSF at 10 mpk (Aβ 40 in rat CSF): 84%

IC50 [1]: 0.00049 µM
IC50 (human recombinant BACE1): 0.000437 µM
IC50 (human recombinant BACE2): 0.0199 µM
IC50 (Recombinant Cat D): 1060 µM
SMILES: C#CCOc1cnc2c(Nc3cnc(F)c([C@@]4(C)N=C(N)S[C@@]5(CO)C[C@H]54)c3)nccc2n1 [Example 662, ((1S,5S,6S)-3-amino-5-(2-fluoro-5-((2-(2-propyn-1-yloxy)pyrido[3,4-b]pyrazin-5-yl)amino)-3-pyridinyl)-5-methyl-2-thia-4-azabicyclo[4.1.0]hept-3-en-1-yl)methanol]
% Aβ 40 reduction in rat brain at 10 mpk (Aβ 40 in rat brain): 37%
% Aβ 40 reduction in rat CSF at 10 mpk (Aβ 40 in rat CSF): 40%
